What is called melting point is the temperature of the solid-liquid transition.

One data set addresses T1, hPPAR δ (LBD) (Homo sapiens, UniProt Q03181).
T1 construct: A receptor expression plasmid (pSG5-GAL4-hPPAR α or γ or δ (LBD)); GAL4 (fusion partner); expressed in transfected cells; host or cells: CV-1 cells (ATCC)
T1 sequence (Q03181 211-439 limits assumed): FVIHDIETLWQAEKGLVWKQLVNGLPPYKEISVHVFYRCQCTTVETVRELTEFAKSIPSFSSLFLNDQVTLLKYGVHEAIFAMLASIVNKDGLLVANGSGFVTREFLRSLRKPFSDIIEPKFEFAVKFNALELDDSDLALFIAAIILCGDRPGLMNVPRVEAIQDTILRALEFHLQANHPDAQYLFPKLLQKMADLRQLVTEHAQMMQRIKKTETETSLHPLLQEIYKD
Briefly: GAL4-hPPAR δ (LBD) luciferase reporter transactivation in CV-1 cells. It is filed as cell-based. The note with it: relative to 100% of GW-501516 at 10^−7 M. As to the method: For determining PPARδ activating effect of the compounds according to the invention, PPARδ activating effects of test compounds (compounds of Examples) were measured by the following method:
(§1) A receptor expression plasmid (pSG5-GAL4-hPPAR α or γ or δ (LBD)), a luciferase expression plasmid (pUC8-MH100x4-TK-Luc) and β-galactosidase expression plasmid (pCMX-β-GAL) (Kliewer, S. A., et. al., (1992) Nature, 358:771-774) are transfected into CV-1 cells (ATCC). After gene transfer utilizing a lipofection reagent DMRIE-C or Lipofectamin 2000 (Invitrogen), it is incubated for 42 hours in the presence of the test compound. Then, the luciferase activity and β-GAL activity are measured on the soluble cells. The luciferase activity is calibrated by the β-GAL activity. A relative ligand activity is calculated for each of the PPARα, γ and δ under the following conditions: a relative activity of PPAR α is calculated in consideration of a luciferase activity (assigned to 100%) of cells treated with the compound described in Example 2 of the aforementioned Patent Publication 4 (PPARα-selective agonist); a relative activity of PPAR γ is calculated in consideration of a luciferase activity (assigned to 100%) cells treated with Rosiglitazone; and a relative activity of PPAR δ is calculated in consideration of a luciferase activity (assigned to 100%) of cells treated with GW-501516. See the below-described Examples 22 and 23.
(§2) The PPARδ activating effects of test compounds (compounds of Examples) were measured by the following method:
as §1, with “(pUC8-MH100x-4-TK-Luc)” for “(pUC8-MH100x4-TK-Luc)”, “approx. 40” for “42”, “PPAR α,” for “PPARα,”, “GW-501516.” for “GW-501516. See the below-described Examples 22 and 23.”
(§3) The experimental results Table 28 were obtained by procedures similar to the procedures for pharmacological experimental described in Example 22.

The target of another data set is T2, hPPAR γ (LBD) (Homo sapiens, UniProt P37231).
T2 construct: A receptor expression plasmid (pSG5-GAL4-hPPAR α or γ or δ (LBD)); GAL4 (fusion partner); expressed in transfected cells; host or cells: CV-1 cells (ATCC)
T2 sequence (P37231 238-503 limits assumed): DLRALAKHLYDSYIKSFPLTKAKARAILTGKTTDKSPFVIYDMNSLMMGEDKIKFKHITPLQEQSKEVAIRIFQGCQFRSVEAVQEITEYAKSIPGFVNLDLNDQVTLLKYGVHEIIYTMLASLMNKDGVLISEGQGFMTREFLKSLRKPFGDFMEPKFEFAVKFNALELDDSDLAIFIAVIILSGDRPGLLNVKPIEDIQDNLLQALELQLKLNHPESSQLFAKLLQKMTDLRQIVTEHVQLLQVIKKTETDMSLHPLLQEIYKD
Briefly: GAL4-hPPAR γ (LBD) luciferase reporter transactivation in CV-1 cells. The class given is cell-based. More on the design: key: IA: inactive. The note with it: relative to 100% of Rosiglitazone at 10^−5 M. As to the method: as §1, §2
as §1, with “(pUC8-MH100x-4-TK-Luc)” for “(pUC8-MH100x4-TK-Luc)”, “approx. 40” for “42”, “PPAR α,” for “PPARα,”, “GW-501516.” for “GW-501516. See the below-described Examples 22 and 23.”
as §3
(In a reporter assay the amount or activity of a reporter protein is the signal.)

Another data set addresses T3, hPPAR α (LBD) (Homo sapiens, UniProt Q07869).
T3 construct: A receptor expression plasmid (pSG5-GAL4-hPPAR α or γ or δ (LBD)); GAL4 (fusion partner); expressed in transfected cells; host or cells: CV-1 cells (ATCC)
T3 sequence (Q07869 239-466 limits assumed): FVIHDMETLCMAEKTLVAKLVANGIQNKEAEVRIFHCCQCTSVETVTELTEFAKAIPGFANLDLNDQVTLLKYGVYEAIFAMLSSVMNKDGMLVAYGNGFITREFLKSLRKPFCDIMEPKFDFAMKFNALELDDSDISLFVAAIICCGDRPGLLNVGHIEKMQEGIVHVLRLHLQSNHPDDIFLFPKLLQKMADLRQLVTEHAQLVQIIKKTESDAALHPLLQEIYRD
Briefly: GAL4-hPPAR α (LBD) luciferase reporter transactivation in CV-1 cells. The class given is cell-based. More on the design: key: IA: inactive. The conditions noted are these: relative to 100% of compound of Example 2 of Patent Publication 4 at 10^−6 M. As to the method:
as §1, §2
as §1, with “(pUC8-MH100x-4-TK-Luc)” for “(pUC8-MH100x4-TK-Luc)”, “approx. 40” for “42”, “PPAR α,” for “PPARα,”, “GW-501516.” for “GW-501516. See the below-described Examples 22 and 23.”
as §3

[1] abbreviates: Table 28, test compound 10^−6 M.

The compound `CCCCCCn1nc(-c2ccc(C(F)(F)F)cc2)cc1CCC(=O)c1ccc(OCC(=O)O)c(C)c1` [Example 11, [4-[3-[1-Hexyl-3-(4-trifluoromethylphenyl)-1H-pyrazol-5-yl]propionyl]-2-methylphenoxy]acetic acid] yielded a melting point of 118 to 123 °C. The “PPAR activity (%) δ” value on hPPAR δ (LBD) (test compound 10^−6 M) came out at 81%. Besides, the “PPAR activity (%) γ” value at hPPAR γ (LBD) (test compound 10^−6 M) is listed as “IA”. Besides, the “PPAR activity (%) α” value at hPPAR α (LBD) (test compound 10^−6 M) is recorded as “IA”.
`Cc1cc(C(=O)CCc2sc(-c3ccc(C(F)(F)F)cc3)cc2C(C)C)ccc1OCC(=O)O` [Example 16, [4-[3-[3-Isopropyl-5-(4-trifluoromethylphenyl)thiophen-2-yl]propionyl]-2-methylphenoxy]acetic acid] returned a melting point of 139 to 143 °C. Also, on hPPAR δ (LBD) (setting [1]), the “PPAR activity (%) δ” value came out at 92%. The “PPAR activity (%) γ” value at hPPAR γ (LBD) (setting [1]) is “inactive”. Moreover, the “PPAR activity (%) α” value on hPPAR α (LBD) (setting [1]) is “inactive”.

Source of the values: US20090240058A1, “Activator for Peroxisome Proliferator-Activating Receptor Delta” (priority 2005, published 2009).
